This is an account of results in article PMC12057046, “Elucidation of short linear motif-based interactions of the MIT and rhodanese domains of the ubiquitin-specific protease 8” (Biology Direct, 2025).

Test [1] has as its system USP8 MIT domain. Description: Proteomic peptide-phage display (ProP-PD) selection against USP8 MIT domain. In kind it is binding, human. Also on record: Confidence: scale not given here. The following applies: for max_counts: Total NGS counts; for Confidence: calculated based on four metrics: overlapping peptides, replicated peptides, motif match, peptide counts; for Counts: fraction of NGS counts for a selection; for Promiscuity: number of baits selections where the peptide has been observed, calculated on the domain level; for Replicates: number of screens against the bait protein in which the peptide has been found; for Specificity: proportion for the current bait of the total NGS read counts of the peptide for all baits screened with this library; for NGS counts (%): ProP-PD, human disorderome library, GST-tagged MIT bait, four rounds of selection, percent of NGS counts associated with each peptide, Fig. 1B. How it is done:
We explored the peptide-binding of the USP8 MIT domain by using the purified GST-tagged MIT domain as bait in proteomic peptide-phage display (ProP-PD) selections and a library designed to display the predicted unstructured regions of the human proteome. The peptide-coding regions of the binding-enriched phage pools were analysed by next-generation sequencing (NGS). After filtering for high confidence ligands, ten ligands remained (Fig. 1B; Supplementary Table S1). None of the ten identified protein-protein interactions had been previously reported, based on comparison with the information available in IntAct, HIPPIE and BioGrid (February 2025). Of the USP8 interacting proteins found, the D site-binding protein (DBP), which is a clock-controlled transcription factor, appears as an interesting ligand as USP8 has been reported to be involved in controlling the circadian rhythm. Also, the CCDC88A-encoded protein Girdin is an interactor of potential biological relevance as it is a scaffolding protein involved in the EGFR pathway which USP8 is known to regulate. At the motif level, there was no shared consensus motif among the ten peptide ligands. However, by manual inspection we noticed that four of the peptides contained a shared [LI]xxR[IY]xxL sequence, which appears to be a variation of the [DE]xxLxxRLxxL[KR] MIM1 motif described in the Eukaryotic Linear Motif resource (ELM) (Fig. 1B). We performed a SPOT array alanine scanning analysis in which peptides are synthesised on a membrane, and where each amino acid position of the peptide is mutated to alanine (or glycine if alanine is in the wild type peptide) to evaluate the effect of the amino acid residues in binding. We tested two peptides containing the apparent MIM1-like motif, one from Girdin (Girdin1192 − 1207) and one from the histone-lysine N-methyltransferase SETD1B (SETD1B492 − 507). […] AlphaFold3 (AF3) modelling of the four peptides with the variant MIM1 motif and the MIT domain docked the peptides with high confidence (ipTM scores: HIVEP1_741 − 756: 0.87, Girdin1192 − 1207: 0.85, MLPH481 − 496: 0.82, SETD1B492 − 507: 0.75) at the expected MIM1 binding pocket (Fig. 1D). […] However, the USP8 MIT selection was dominated (more than 94% of NGS counts) by two peptides that lack an apparent MIM1 motif. The two peptides were from the EF-hand calcium-binding domain-containing protein 12 (EFCAB12_1 − 16: […]) and from DBP (DBP116 − 131: […]) (Fig. 1B). […] In comparison to this, the EFCAB12_1 − 16 peptide shares a potential Dx[YF]xxxH[SG] motif with the DBP116 − 131 (Fig. 1B). […] The AF3 model of DBP116 − 131 peptide supports the interaction of D120 of the DBP116 − 131 peptide with the residues K74 and N71 in the MIT domain (Fig. 1G), emphasizing the significance of the aspartic acid at this position. […] Of them, two peptides (SYNE2_853 − 868 and PKNOX1_56 − 71) where placed in the same binding site as the Girdin and DBP peptides with high confidences by AF3 modelling (ipTM 0.92 and 0.74; Supplementary Fig. S3).
Four rounds of phage selections were carried out using the second generation human disorderome library or the constructed deep mutational scanning library. At least three individual replicates were used for each bait protein. 10 µg of GST-tagged proteins or GST control (diluted in PBS from the stock of proteins kept in the purification elution buffer) were immobilized in 100 µL PBS on a 96-well MaxiSorp (Nunc) plate overnight at 4 °C. The plates were incubated with blocking buffer (with 0.5% BSA in PBS) for 1 h at 4 °C followed by washing with 0.05% Tween 20 in PBS four times. The naïve phage library (10^11 CFU) was diluted in 1/5th volume PEG/NaCl (20% PEG-8000, 0.4 M NaCl) and 1X PBS, incubated on ice for 10 min and centrifuged at 10,000 [drawing 3] g for 10 min. The pellet was resuspended in the volume of PBS (100 µL/ well). […]

Test [2] has as its system USP8 MIT domain. Kind of test: Peptide-phage display-based deep mutational scanning (DMS), USP8 MIT domain. The following applies: for DMS-derived binding motif: M13 phage, triplicate selections in biological replicates, NGS, PSSM; for hit_pair_ratio: bait USP8_MIT__P40818_1_142. The test is classed as binding, human. The procedure, abridged: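 Four rounds of phage selection against immobilized GST-tagged bait (GST control pre-clearing) at 4 °C, using human disorderome or 16-mer deep mutational scanning library (all non-Cys substitutions), ≥3 replicates. Enriched pools sequenced by Illumina NGS; replicate-summed counts converted to averaged fractions and frequency PSSMs per wild-type peptide.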

[3] abbreviates: MLPH 482-497, ratio of averaged fractions of wild-type/mutant peptide pair, larger over smaller (direction to be read from the two fractions).
Where [4] appears, read: sheet S3.B_ProP-PD_pairs, ratio within the wild-type/mutant pair, larger over smaller averaged fraction (direction from fraction_wt and fraction_mut).
Where [5] appears, read: EFCAB12 (Q6NXP0) 2-17, pair of mutant with wild-type wt_00016 (MDDDYEAYHSLFLSLL), sheet S3.B_ProP-PD_pairs.

Regarding “HDSLDSRIEMLLKEQR [SETD1B 496-511, Histone-lysine N-methyltransferase SETD1B peptide, overlapping]”, in the test on USP8 MIT domain [1], the max_counts was found to be 7, the Confidence was 2, the Counts is reported as 0.0001221 and the Promiscuity is 1. In the test with USP8 MIT domain [1], this sequence displayed a Replicates of 3 and a Specificity of 1.
On to “HRRVRTEGKESSSASR [CACNA1E, Voltage-dependent R-type calcium channel subunit alpha-1E peptide 923-938]”, for which, in the test with USP8 MIT domain [1], the “NGS counts (%)” value was 0.87%, the max_counts was 96, the Confidence was 2 and the Counts stood at 0.001177. Moreover, in the test with USP8 MIT domain [1], the Promiscuity was 3, the Replicates stood at 2 and the Specificity was determined as 0.7101.
As for MDDDYEAYHSLFLSLL [EFCAB12_1 − 16], in the test with USP8 MIT domain [2] (EFCAB12 MDDDYEAYHSLFLSLL, library USP8_DMS, days 2,3, quotient of wild type and mutant frequencies per column, highest divided by lowest), the “PSSM score, enrichment_relative_to_wt” value was determined as 1. In addition, the DMS-derived binding motif result with USP8 MIT domain [2] was “[DE]Fx{2,3}R[FY]xxLL”. Besides, in the test on USP8 MIT domain [1], the “NGS counts (%)” value was 78.22%, the max_counts is recorded as 3851, the Confidence is 3 and the Counts is 0.08013. Further, in the test on USP8 MIT domain [1], the Promiscuity is recorded as 6, the Replicates was 6 and the Specificity is 0.9605.
As to “QAIYRHPLFPLLALLF [PKNOX1_56 − 71, Homeobox protein PKNOX1 peptide]”, in the test with USP8 MIT domain [1], the “NGS counts (%)” value was found to be 0.95%, the max_counts was 107, the Confidence is on record as 2 and the Counts is reported as 0.001294. For the same sequence, in the test with USP8 MIT domain [1], the Promiscuity was 21, the Replicates was 1 and the Specificity is given as 0.5.
Consider “SEVSDIESRIAALRAA [MLPH481 − 496, melanophilin peptide]”, for which the DMS-derived binding motif entry with USP8 MIT domain [2] is “[DE]Fx{2,3}R[FY]xxLL”. Moreover, in the test on USP8 MIT domain [1], the “NGS counts (%)” value came out at 0.52%, the max_counts was 33, the Confidence was 3 and the Counts was found to be 0.000511. In addition, in the test with USP8 MIT domain [1], the Promiscuity is recorded as 2, the Replicates was 3 and the Specificity stood at 0.9365.
In the case of SEVSDISSRIAALRAA, the hit_pair_ratio with USP8 MIT domain [2] (setting [3]) was 1.56.
The same measure, in the same setting: then SEVSDITSRIAALRAA, with 1.11; and SEVSDRESRIAALRAA, with 2.60; and SEVSDTESRIAALRAA, with 3.89.
On the same count and under the same terms, then SEVSDVESRIAALRAA, with 7.79; and SEVSDYESRIAALRAA, with 2.23; and SEVSEIESRIAALRAA, with 1.80.
On the same count and under the same terms, then SEVSHIESRIAALRAA, with 7.79; and SEVSNIESRIAALRAA, with 3.89.
Take SEVSYIESRIAALRAA: the hit_pair_ratio in the test with USP8 MIT domain [2] (setting [3]) is given as 7.79.
With SEVVDIESRIAALRAA, in the test on USP8 MIT domain [2] (setting [3]), the hit_pair_ratio is on record as 12.32.
On the same count and under the same terms, as for SEVWDIESRIAALRAA, the figure is 1.49; as for SEVYDIESRIAALRAA, 346.56.
The same measure, in the same setting: then SEWSDIESRIAALRAA, with 1.11.
Turning to SEYSDIESRIAALRAA, the hit_pair_ratio in the test with USP8 MIT domain [2] (setting [3]) is 1.74.
SHVSDIESRIAALRAA: the hit_pair_ratio in the test with USP8 MIT domain [2] (setting [4]) amounted to 1.51.
As for SKVSDIESRIAALRAA, in the test with USP8 MIT domain [2] (setting [4]), the hit_pair_ratio was found to be 3.89.
Turning to SLVSDIESRIAALRAA, in the test with USP8 MIT domain [2] (setting [4]), the hit_pair_ratio is on record as 1.11.
Same read-out and setting: as for SMVSDIESRIAALRAA, the figure is 7.79; as for SNVSDIESRIAALRAA, 1.35.
Turning to SPVSDIESRIAALRAA, the hit_pair_ratio in the test on USP8 MIT domain [2] (setting [4]) is 1.56.
On to SQVSDIESRIAALRAA, for which the hit_pair_ratio with USP8 MIT domain [2] (setting [4]) worked out at 1.00.
Still for that read-out and setting: then SRVSDIESRIAALRAA, with 3.31; and SSVSDIESRIAALRAA, with 24.28.
In the case of SVVSDIESRIAALRAA, in the test on USP8 MIT domain [2] (setting [4]), the hit_pair_ratio is 2.60.
Same read-out and setting: as for SYVSDIESRIAALRAA, the figure is 1.00.
TDDDYEAYHSLFLSLL [mut_04335] registered a hit_pair_ratio with USP8 MIT domain [2] (setting [5]) of 30.76.
TEVSDIESRIAALRAA: the hit_pair_ratio with USP8 MIT domain [2] (setting [4]) is reported as 6.74.
On to “TKTLEERISKLISDNE [HIVEP1_741 − 756, Zinc finger protein 40 peptide]”, for which, in the test on USP8 MIT domain [1], the “NGS counts (%)” value came to 0.21%, the max_counts turned out to be 19, the Confidence is on record as 2 and the Counts is 0.001178. In the test on USP8 MIT domain [1], the Promiscuity is recorded as 1, the Replicates came out at 2 and the Specificity turned out to be 1.
Consider VDDDYEAYHSLFLSLL [mut_04336], for which the hit_pair_ratio with USP8 MIT domain [2] (setting [5]) turned out to be 42.24.
Consider VEVSDIESRIAALRAA, for which the hit_pair_ratio in the test on USP8 MIT domain [2] (setting [4]) is reported as 3.36.
“VLSKRKGGNVGKSKRD [ERVK-21, Endogenous retrovirus group K member 21 Env polyprotein peptide 676-691]”: in the test on USP8 MIT domain [1], the “NGS counts (%)” value turned out to be 0.16%, the max_counts turned out to be 18, the Confidence is given as 2 and the Counts came to 0.000837. Also, in the test with USP8 MIT domain [1], the Promiscuity is given as 4, the Replicates came to 1 and the Specificity is 0.5806.
Consider WDDDYEAYHSLFLSLL [mut_04337], for which the hit_pair_ratio in the test with USP8 MIT domain [2] (setting [5]) is reported as 1.74.
With WEVSDIESRIAALRAA, the hit_pair_ratio in the test with USP8 MIT domain [2] (setting [4]) turned out to be 13.49.
As for YDDDYEAYHSLFLSLL [mut_04338], the hit_pair_ratio with USP8 MIT domain [2] (setting [5]) stood at 1.04.
Turning to YEVSDIESRIAALRAA, in the test on USP8 MIT domain [2] (setting [4]), the hit_pair_ratio is on record as 4.18.
